Experiments:
[1] = system: normal primary NK cells, pool 1 (3 donors) (IL-2 2.5 ng/mL); assay: drug sensitivity score (DSS) (DSS units); higher = more sensitive; extreme values may be limits of the assay; conditions: 72 h
IMC-1 (IL-2 20 ng/mL) [2] = assay: as above; conditions: 72 h
NK-YS (IL-2 2.5 ng/mL) [3] = assay: as above; conditions: 72 h
YT (IL-2 2.5 ng/mL) [4] = assay: as above; conditions: 72 h
DERL-7 (IL-2 2.5 ng/mL) [5] = assay: as above; conditions: 72 h
[6] = system: normal primary NK cells, pool 2 (3 donors) (IL-2 2.5 ng/mL); assay: as above; conditions: 72 h
NK-92 (IL-2 2.5 ng/mL) [7] = assay: as above; conditions: 72 h
KHYG-1 (IL-2 2.5 ng/mL) [8] = assay: as above; conditions: 72 h
[9] = system: normal primary NK cells, pool 1 (3 donors), resting (IL-2 0 ng/mL); assay: as above; conditions: 72 h
[10] = system: normal primary NK cells, pool 3 (3 donors) (IL-2 2.5 ng/mL); assay: as above; conditions: 72 h
NKL (IL-2 2.5 ng/mL) [11] = assay: as above; conditions: 72 h
KAI3 (IL-2 2.5 ng/mL) [12] = assay: as above; conditions: 72 h
SNK-6 (IL-2 2.5 ng/mL) [13] = assay: as above; conditions: 72 h
[14] = system: normal NK cells expanded with K562-aAPC; assay: as above; conditions: 72 h; IL-2 2.5 ng/mL
Procedure: (§1)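 Drug sensitivity and resistance testing on K562-aAPC-expanded normal NK cells: 5 concentrations (10-fold steps over a 10,000-fold range), 72 h at 37 °C, viability by CellTiter-Glo normalised to DMSO and benzethonium chloride controls; DSS from the fitted curve.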

[15] = system: normal NK cells expanded with K562-aAPC; assay: percent inhibition of viability; higher = more inhibition; conditions: 72 h, IL-2 2.5 ng/mL
Procedure: as §1

[16] = system: normal primary NK cells, pool 1 (3 donors) (IL-2 2.5 ng/mL); assay: as above; conditions: 72 h
IMC-1 (IL-2 20 ng/mL) [17] = assay: as above; conditions: 72 h
NK-YS (IL-2 2.5 ng/mL) [18] = assay: as above; conditions: 72 h
YT (IL-2 2.5 ng/mL) [19] = assay: as above; conditions: 72 h
DERL-7 (IL-2 2.5 ng/mL) [20] = assay: as above; conditions: 72 h
[21] = system: normal primary NK cells, pool 2 (3 donors) (IL-2 2.5 ng/mL); assay: as above; conditions: 72 h
NK-92 (IL-2 2.5 ng/mL) [22] = assay: as above; conditions: 72 h
KHYG-1 (IL-2 2.5 ng/mL) [23] = assay: as above; conditions: 72 h
[24] = system: normal primary NK cells, pool 1 (3 donors), resting (IL-2 0 ng/mL); assay: as above; conditions: 72 h
[25] = system: normal primary NK cells, pool 3 (3 donors) (IL-2 2.5 ng/mL); assay: as above; conditions: 72 h
NKL (IL-2 2.5 ng/mL) [26] = assay: as above; conditions: 72 h
KAI3 (IL-2 2.5 ng/mL) [27] = assay: as above; conditions: 72 h
SNK-6 (IL-2 2.5 ng/mL) [28] = assay: as above; conditions: 72 h

CNC(=O)c1cccc(-c2ccc3c(N4CCOC[C@@H]4C)nc(N4CCOC[C@@H]4C)nc3n2)c1 [AZD2014] (max concentration tested 10000 nM)
Conditions | drug sensitivity score
DERL-7 (IL-2 2.5 ng/mL) [5] | 18.6
IMC-1 (IL-2 20 ng/mL) [2] | 0
KAI3 (IL-2 2.5 ng/mL) [12] | 21
KHYG-1 (IL-2 2.5 ng/mL) [8] | 11.2
NK-92 (IL-2 2.5 ng/mL) [7] | 14.5
NK-YS (IL-2 2.5 ng/mL) [3] | 14.4
NKL (IL-2 2.5 ng/mL) [11] | 20.4
SNK-6 (IL-2 2.5 ng/mL) [13] | 12.5
YT (IL-2 2.5 ng/mL) [4] | 13.5
[1] | 8.12
[6] | 5.3
[9] | 9.03
[10] | 5.08
[14] | 10.8

percent inhibition of viability [%]
Conditions | 1 nM | 10 nM | 100 nM | 1000 nM | 10000 nM
DERL-7 (IL-2 2.5 ng/mL) [20] | -2.59 | 6.55 | 37.5 | 74.8 | 87.2
IMC-1 (IL-2 20 ng/mL) [17] | -8.07 | -10.1 | -19.9 | -44.5 | 8.41
KAI3 (IL-2 2.5 ng/mL) [27] | 19.5 | 24.3 | 46.2 | 65.3 | 73.2
KHYG-1 (IL-2 2.5 ng/mL) [23] | 8.26 | 7.2 | 12.9 | 48.3 | 87.9
NK-92 (IL-2 2.5 ng/mL) [22] | 4.44 | -1.39 | 29.1 | 57.6 | 86.6
NK-YS (IL-2 2.5 ng/mL) [18] | 7.61 | 7.66 | 23 | 61.5 | 81.5
NKL (IL-2 2.5 ng/mL) [26] | 8.6 | 17.6 | 50.9 | 66.7 | 73
SNK-6 (IL-2 2.5 ng/mL) [28] | 5.51 | 16.6 | 22.9 | 45 | 60.5
YT (IL-2 2.5 ng/mL) [19] | 10.9 | 6.65 | 18.3 | 60.6 | 78.2
[15] | 1.08 | 8.53 | 26.5 | 39.1 | 53.6
[16] | 5.65 | 6.16 | 19.9 | 34.6 | 35.5
[21] | -6.11 | 7.01 | 7.49 | 28.2 | 29.1
[24] | -7.02 | 8.25 | 24.4 | 20.1 | 45.9
[25] | 0.74 | 5.96 | 9.04 | 27.7 | 27.3

c1ccc2c(CCNc3ccc(Nc4ccncc4)cc3)c[nH]c2c1 [Serdemetan] (max concentration tested 10000 nM)
Conditions | drug sensitivity score
DERL-7 (IL-2 2.5 ng/mL) [5] | 17.7
IMC-1 (IL-2 20 ng/mL) [2] | 5.74
KAI3 (IL-2 2.5 ng/mL) [12] | 15.1
KHYG-1 (IL-2 2.5 ng/mL) [8] | 8.49
NK-92 (IL-2 2.5 ng/mL) [7] | 7.67
NK-YS (IL-2 2.5 ng/mL) [3] | 11.7
NKL (IL-2 2.5 ng/mL) [11] | 20.1
SNK-6 (IL-2 2.5 ng/mL) [13] | 5.77
YT (IL-2 2.5 ng/mL) [4] | 7.62
[1] | 12
[6] | 9.95
[9] | 14
[10] | 10.8
[14] | 11

percent inhibition of viability [%]
Conditions | 1 nM | 10 nM | 100 nM | 1000 nM | 10000 nM
DERL-7 (IL-2 2.5 ng/mL) [20] | 1.57 | 3.06 | 5.72 | 93 | 99.8
IMC-1 (IL-2 20 ng/mL) [17] | -3.43 | -4.48 | -1.24 | 6.25 | 86.2
KAI3 (IL-2 2.5 ng/mL) [27] | 1.77 | -7.13 | 13.3 | 71.7 | 96.4
KHYG-1 (IL-2 2.5 ng/mL) [23] | -4.53 | -3.7 | -1.91 | 20.5 | 94.6
NK-92 (IL-2 2.5 ng/mL) [22] | -2.5 | -9.68 | -24.1 | 16.9 | 89.1
NK-YS (IL-2 2.5 ng/mL) [18] | -3.94 | -6.06 | -3.31 | 54.3 | 93.6
NKL (IL-2 2.5 ng/mL) [26] | -4.48 | -6.86 | 12.5 | 103 | 96.3
SNK-6 (IL-2 2.5 ng/mL) [28] | 1.74 | -8.4 | -40.5 | 2.69 | 97.8
YT (IL-2 2.5 ng/mL) [19] | -0.01 | -0.09 | 2.11 | 16.2 | 89.5
[15] | 3.3 | -0.88 | -3.23 | 41.7 | 99.6
[16] | -2.89 | -12 | -5.86 | 54.6 | 98
[21] | -12.5 | -4.95 | -4.4 | 34 | 94.8
[24] | -1.96 | -20.5 | -16.5 | 78.3 | 90.8
[25] | -9.21 | -2.68 | -1.24 | 41.2 | 98.2

Nc1nc(N)c2nc(-c3cccc(O)c3)c(-c3cccc(O)c3)nc2n1 [TG100-115] (max concentration tested 10000 nM)
Conditions | drug sensitivity score
DERL-7 (IL-2 2.5 ng/mL) [5] | 0
IMC-1 (IL-2 20 ng/mL) [2] | 2.97
KAI3 (IL-2 2.5 ng/mL) [12] | 0
KHYG-1 (IL-2 2.5 ng/mL) [8] | 1.47
NK-92 (IL-2 2.5 ng/mL) [7] | 0.35
NK-YS (IL-2 2.5 ng/mL) [3] | 0
NKL (IL-2 2.5 ng/mL) [11] | 2.07
SNK-6 (IL-2 2.5 ng/mL) [13] | 10.8
YT (IL-2 2.5 ng/mL) [4] | 0
[1] | 0.36
[6] | 1.02
[9] | 0.1
[10] | 0.09
[14] | 2.01

percent inhibition of viability [%]
Conditions | 1 nM | 10 nM | 100 nM | 1000 nM | 10000 nM
DERL-7 (IL-2 2.5 ng/mL) [20] | -6.88 | -4.08 | 5.03 | -4.31 | 3.35
IMC-1 (IL-2 20 ng/mL) [17] | -0.94 | 5.84 | 4.32 | 14.9 | 34.2
KAI3 (IL-2 2.5 ng/mL) [27] | -5.91 | 4.12 | -4.09 | -1.44 | 13.4
KHYG-1 (IL-2 2.5 ng/mL) [23] | 0.48 | 4.75 | 4.43 | 9.36 | 24.5
NK-92 (IL-2 2.5 ng/mL) [22] | -2.65 | 1.92 | 7.95 | 3.09 | 17.8
NK-YS (IL-2 2.5 ng/mL) [18] | -1.11 | -1.59 | 0.64 | 4.73 | 8.38
NKL (IL-2 2.5 ng/mL) [26] | -7.69 | -0.08 | 0.45 | 6.08 | 27.7
SNK-6 (IL-2 2.5 ng/mL) [28] | 0.36 | 13.3 | 17.1 | 53.8 | 39
YT (IL-2 2.5 ng/mL) [19] | 1.25 | 2.49 | 4.53 | 4.76 | 12.3
[15] | -2.77 | -3.08 | 0.07 | 6.14 | 26.9
[16] | 6.61 | -12.2 | -0.36 | -3.46 | 18.8
[21] | -11.3 | -4.42 | 12.3 | 5.35 | 21.7
[24] | 0.41 | -21.8 | -6.01 | -19 | 16.1
[25] | -6.73 | -4.4 | 7.77 | -1.79 | 13.7
